In the oligonucleotide strings, read from the 5' end, every base follows the letter of its sugar. An asterisk marks phosphorothioate; unmarked linkages are phosphodiester. Other units and linkages are bracketed, terminal groups are in braces. A string of capitals states the bases alone. {NAG37} = tridentate N-acetyl-galactosamine targeting ligand, structure (NAG37)s; [invAb] = inverted abasic unit; m = 2'-O-methyl; f = 2'-fluoro
Experiments:
ANGPTL3 gene [1] = test: Example 14: RNAi agent and statin, serum LDL in LDLR knockout mice; assay type: in vivo, LDLR KO mice
From the text: To evaluate the effect of co-administration of RNAi agents and statins in a disease model, LDLR KO mice were commercially obtained (The Jackson Laboratory). For three weeks prior to the onset of the study, forty-one (41) male 7 to 8 week old LDLR KO mice were placed on a high fat (“western”) diet (Teklad Custom Diets TD.88137), and remained on that diet throughout the duration of the study. Pre-dose serum samples were taken on study Day 1 after a four hour fast. The dosing regimen for the study is recited in the following Table 72:
• Mice were treated at 40 mg/kg for the first 11 days, then switched to 20 mg/kg thereafter.
The vehicle used for the oral gavage in the study was a 1:1 mixture of Ora-Plus®: Ora-Sweet® solution, which were acquired commercially. For the preparation of the atorvastatin oral gavage administrations, the respective desired dose of atorvastatin was first dissolved in sterile water (0.3 mL water per 1 mL of desired formulation) and vortexed until smooth, followed by the addition of a mixture of 1:1 Ora-Plus®: Ora-Sweet® solution (0.7 mL vehicle per 1 mL of desired formulation) and vortexed. On day 1 and for each day thereafter an oral gavage dose was administered for each of the Groups except for Group 2. On Day 23, Groups 1, 2, 3, and 4 received a single subcutaneous administration of 2.5 mg/kg dose ([…] solution) of an ANGPTL3 RNAi agent in D5W (dextrose in 5% water), or vehicle control (D5W) with no RNAi agent.
The RNAi agent tested (AD05488) included a modified sequence and an N-acetyl-galactosamine-containing targeting ligand conjugated to the 5′ terminal end of the sense strand. (See Tables 3, 4, and 5 for modified sequences and targeting ligand structures). The injections were performed between the skin and muscle (i.e. subcutaneous injections) into the loose skin over the neck and shoulder area. Serum was collected on days 8, 15, 22 (pre-RNAi agent injection), 29, 36, 43, and 50. LDLR KO mice were fasted for four hours prior to each collection.
ANGPTL3 protein levels in serum were measured by ELISA assay (R&D Systems), according to the manufacturer's recommendations. Among other biomarkers, triglycerides, total cholesterol, and low-density lipoprotein (LDL) in serum were measured on a Cobas® Integra 400 (Roche Diagnostics), according to the manufacturer's recommendations.
The ANGPTL3 protein levels, triglyceride levels, total cholesterol levels, HDL levels, and LDL levels for each animal were normalized. For normalization, respective levels of ANGPTL3 protein, TG, total cholesterol, or LDL for each animal at a time point was divided by the pre-treatment level of expression in that animal (in this case pre-dose levels on Day 1) to determine the ratio of expression “normalized to pre-treatment.” Data from the study set forth in this Example are shown in the following Tables 73-76: […]

ANGPTL3 gene [2] = test: Example 11: dose response, serum total cholesterol in mice; assay type: in vivo, C57bl/6 mice
Method: To assess the dose response of ANGPTL3 RNAi agent AD05488, six- to eight-week-old female C57bl/6 mice were used. Pre-dose serum samples were taken at day −1 after a four hour fast. At day 1, each mouse was given a single subcutaneous administration of 200 μl containing the respective mg/kg dose of an ANGPTL3 RNAi agent in D5W (dextrose in 5% water), or control (D5W) with no RNAi agent, according to the dosing groups recited in Table 53:
The RNAi agent tested (AD05488) included a modified sequence and an N-acetyl-galactosamine-containing targeting ligand conjugated to the 5′ terminal end of the sense strand. (See Tables 3, 4, and 5 for modified sequences and targeting ligand structures). The injections were performed between the skin and muscle (i.e. subcutaneous injections) into the loose skin over the neck and shoulder area. Four (4) mice in each group were tested (n=4). Serum was collected on days 8, 15, 22, and 29. Mice were fasted for four hours prior to each collection. ANGPTL3 protein levels in serum were measured by ELISA assay (R&D Systems), according to the manufacturer's recommendations. Triglycerides, total cholesterol, high-density lipoprotein (HDL), and low-density lipoprotein (LDL) in serum were measured on a Cobas® Integra 400 (Roche Diagnostics), according to the manufacturer's recommendations.
The ANGPTL3 protein levels, triglyceride levels, total cholesterol levels, HDL levels, and LDL levels for each animal were normalized. For normalization, the level of ANGPTL3 protein, triglyceride, HDL, and total cholesterol, respectively, for each animal at a time point, was divided by the pre-treatment level of expression in that animal (in this case at day −1) to determine the ratio of expression “normalized to pre-treatment.” Expression at a specific time point was then normalized to the D5W control group by dividing the “normalized to pre-treatment” ratio for an individual animal by the mean “normalized to pretreatment” ratio of all mice in the D5W control group.

With “AD05488: RNAi agent duplex: antisense AM07235-AS, sense AM07234-SS (antisense mU*fA*mC*fUmGfAmUfCmAfAmAfUmAfUmGfUmUfGmAfG*mC; sense {NAG37}*[invAb]*mGmCmUmCmAmAmCmAfUfAfUmUmUmGmAmUmCmAmGmUmA*[invAb])” the “Avg LDL normalized to pre-treatment” value (ANGPTL3 gene [1]; Group 2: no gavage, 2.5 mg/kg AD05488 SC on day 23, Day 8 (pre-RNAi agent injection)) was 0.893, the “Avg LDL normalized to pre-treatment” value (ANGPTL3 gene [1]; Group 2: no gavage, 2.5 mg/kg AD05488 SC on day 23, Day 15 (pre-RNAi agent injection)) was 1.051 and the “Avg LDL normalized to pre-treatment” value (ANGPTL3 gene [1]; Group 2: no gavage, 2.5 mg/kg AD05488 SC on day 23, Day 22 (pre-RNAi agent injection)) was 1.113. The “Avg LDL normalized to pre-treatment” value (ANGPTL3 gene [1]; Group 2: no gavage, 2.5 mg/kg AD05488 SC on day 23, Day 29) was 0.653, the “Avg LDL normalized to pre-treatment” value (ANGPTL3 gene [1]; Group 2: no gavage, 2.5 mg/kg AD05488 SC on day 23, Day 36) was 0.492 and the “Avg LDL normalized to pre-treatment” value (ANGPTL3 gene [1]; Group 2: no gavage, 2.5 mg/kg AD05488 SC on day 23, Day 43) was 0.443. The “Avg LDL normalized to pre-treatment” value (ANGPTL3 gene [1]; Group 2: no gavage, 2.5 mg/kg AD05488 SC on day 23, Day 50) was 0.480, the “Avg LDL normalized to pre-treatment” value (ANGPTL3 gene [1]; Group 3: 10 mg/kg daily oral gavage atorvastatin, 2.5 mg/kg AD05488 on day 23, Day 8 (pre-RNAi agent injection)) was 0.692 and the “Avg LDL normalized to pre-treatment” value (ANGPTL3 gene [1]; Group 3: 10 mg/kg daily oral gavage atorvastatin, 2.5 mg/kg AD05488 on day 23, Day 15 (pre-RNAi agent injection)) was 0.537. For the same substance, the “Avg LDL normalized to pre-treatment” value (ANGPTL3 gene [1]; Group 3: 10 mg/kg daily oral gavage atorvastatin, 2.5 mg/kg AD05488 on day 23, Day 22 (pre-RNAi agent injection)) was 0.659, the “Avg LDL normalized to pre-treatment” value (ANGPTL3 gene [1]; Group 3: 10 mg/kg daily oral gavage atorvastatin, 2.5 mg/kg AD05488 on day 23, Day 29) was 0.422 and the “Avg LDL normalized to pre-treatment” value (ANGPTL3 gene [1]; Group 3: 10 mg/kg daily oral gavage atorvastatin, 2.5 mg/kg AD05488 on day 23, Day 36) was 0.312. The “Avg LDL normalized to pre-treatment” value (ANGPTL3 gene [1]; Group 3: 10 mg/kg daily oral gavage atorvastatin, 2.5 mg/kg AD05488 on day 23, Day 43) was 0.264, the “Avg LDL normalized to pre-treatment” value (ANGPTL3 gene [1]; Group 3: 10 mg/kg daily oral gavage atorvastatin, 2.5 mg/kg AD05488 on day 23, Day 50) was 0.256 and the “Avg LDL normalized to pre-treatment” value (ANGPTL3 gene [1]; Group 4: 20 mg/kg* daily oral gavage atorvastatin (40 mg/kg first 11 days), 2.5 mg/kg AD05488 on day 23, Day 8 (pre-RNAi agent injection)) was 0.572. The “Avg LDL normalized to pre-treatment” value (ANGPTL3 gene [1]; Group 4: 20 mg/kg* daily oral gavage atorvastatin (40 mg/kg first 11 days), 2.5 mg/kg AD05488 on day 23, Day 15 (pre-RNAi agent injection)) was 0.515, the “Avg LDL normalized to pre-treatment” value (ANGPTL3 gene [1]; Group 4: 20 mg/kg* daily oral gavage atorvastatin (40 mg/kg first 11 days), 2.5 mg/kg AD05488 on day 23, Day 22 (pre-RNAi agent injection)) was 0.755 and the “Avg LDL normalized to pre-treatment” value (ANGPTL3 gene [1]; Group 4: 20 mg/kg* daily oral gavage atorvastatin (40 mg/kg first 11 days), 2.5 mg/kg AD05488 on day 23, Day 29) was 0.434. The “Avg LDL normalized to pre-treatment” value (ANGPTL3 gene [1]; Group 4: 20 mg/kg* daily oral gavage atorvastatin (40 mg/kg first 11 days), 2.5 mg/kg AD05488 on day 23, Day 36) was 0.240, the “Avg LDL normalized to pre-treatment” value (ANGPTL3 gene [1]; Group 4: 20 mg/kg* daily oral gavage atorvastatin (40 mg/kg first 11 days), 2.5 mg/kg AD05488 on day 23, Day 43) was 0.217 and the “Avg LDL normalized to pre-treatment” value (ANGPTL3 gene [1]; Group 4: 20 mg/kg* daily oral gavage atorvastatin (40 mg/kg first 11 days), 2.5 mg/kg AD05488 on day 23, Day 50) was 0.242. The “total reductions in LDL” value (ANGPTL3 gene [1]; co-administration of atorvastatin and RNAi agent (Groups 3 and 4), LDLR KO mice on high fat diet) was ~ 80%, the “Avg Total Chol Normalized to Pre-Treatment and Control” value (“Avg Total Chol Normalized” below) (ANGPTL3 gene [2]; 0.05 mg/kg single sc day 1, Day 8) was 0.856 and the “Avg Total Chol Normalized” value (ANGPTL3 gene [2]; 0.05 mg/kg single sc day 1, Day 15) was 1.090. The “Avg Total Chol Normalized” value (ANGPTL3 gene [2]; 0.05 mg/kg single sc day 1, Day 22) was 0.946, the “Avg Total Chol Normalized” value (ANGPTL3 gene [2]; 0.05 mg/kg single sc day 1, Day 29) was 0.915 and the “Avg Total Chol Normalized” value (ANGPTL3 gene [2]; 0.1 mg/kg single sc day 1, Day 8) was 0.820. The “Avg Total Chol Normalized” value (ANGPTL3 gene [2]; 0.1 mg/kg single sc day 1, Day 15) was 0.974, the “Avg Total Chol Normalized” value (ANGPTL3 gene [2]; 0.1 mg/kg single sc day 1, Day 22) was 0.785 and the “Avg Total Chol Normalized” value (ANGPTL3 gene [2]; 0.1 mg/kg single sc day 1, Day 29) was 0.945. The “Avg Total Chol Normalized” value (ANGPTL3 gene [2]; 0.5 mg/kg single sc day 1, Day 8) was 0.740, the “Avg Total Chol Normalized” value (ANGPTL3 gene [2]; 0.5 mg/kg single sc day 1, Day 15) was 0.918 and the “Avg Total Chol Normalized” value (ANGPTL3 gene [2]; 0.5 mg/kg single sc day 1, Day 22) was 0.897. The “Avg Total Chol Normalized” value (ANGPTL3 gene [2]; 0.5 mg/kg single sc day 1, Day 29) was 0.883, the “Avg Total Chol Normalized” value (ANGPTL3 gene [2]; 1.0 mg/kg single sc day 1, Day 8) was 0.610 and the “Avg Total Chol Normalized” value (ANGPTL3 gene [2]; 1.0 mg/kg single sc day 1, Day 15) was 0.816. For the same substance, the “Avg Total Chol Normalized” value (ANGPTL3 gene [2]; 1.0 mg/kg single sc day 1, Day 22) was 0.857, the “Avg Total Chol Normalized” value (ANGPTL3 gene [2]; 1.0 mg/kg single sc day 1, Day 29) was 0.920 and the “Avg Total Chol Normalized” value (ANGPTL3 gene [2]; 2.5 mg/kg single sc day 1, Day 8) was 0.647. The “Avg Total Chol Normalized” value (ANGPTL3 gene [2]; 2.5 mg/kg single sc day 1, Day 15) was 0.832, the “Avg Total Chol Normalized” value (ANGPTL3 gene [2]; 2.5 mg/kg single sc day 1, Day 22) was 0.772 and the “Avg Total Chol Normalized” value (ANGPTL3 gene [2]; 2.5 mg/kg single sc day 1, Day 29) was 0.694. For the same substance, the “Avg Total Chol Normalized” value (ANGPTL3 gene [2]; 5.0 mg/kg single sc day 1, Day 8) was 0.583, the “Avg Total Chol Normalized” value (ANGPTL3 gene [2]; 5.0 mg/kg single sc day 1, Day 15) was 0.787 and the “Avg Total Chol Normalized” value (ANGPTL3 gene [2]; 5.0 mg/kg single sc day 1, Day 22) was 0.790. For the same substance, the “Avg Total Chol Normalized” value (ANGPTL3 gene [2]; 5.0 mg/kg single sc day 1, Day 29) was 0.783.
